Reference: paper PMC6194350, “Catalytic Performance of a Class III Old Yellow Enzyme and Its Cysteine Variants” (Frontiers in Microbiology, 2018)

Key:
Format in all cases: biochemical
OYERo2a (WT) [1] = molecular target: T1, OYERo2a (WT) (Rhodococcus opacus, UniProt A0A1B1KA86, C25S, form not given); test: steady-state kinetics, NADPH consumption at […] nm; conditions: 50 mM phosphate pH 7.1, 25°C
T1 construct: gene O4328_33150; FMN 1:1; dimer by gel filtration; single Cys25

OYERo2a (WT) [2] = molecular target: T2, OYERo2a (WT) (Rhodococcus opacus, UniProt A0A1B1KA86); test: steady-state kinetics, NADPH consumption at […] nm; conditions: 50 mM phosphate pH 7.1, 25°C
T2 construct: gene O4328_33150; FMN 1:1; dimer by gel filtration; single Cys25
T2 sequence (A0A1B1KA86 entry or part of it): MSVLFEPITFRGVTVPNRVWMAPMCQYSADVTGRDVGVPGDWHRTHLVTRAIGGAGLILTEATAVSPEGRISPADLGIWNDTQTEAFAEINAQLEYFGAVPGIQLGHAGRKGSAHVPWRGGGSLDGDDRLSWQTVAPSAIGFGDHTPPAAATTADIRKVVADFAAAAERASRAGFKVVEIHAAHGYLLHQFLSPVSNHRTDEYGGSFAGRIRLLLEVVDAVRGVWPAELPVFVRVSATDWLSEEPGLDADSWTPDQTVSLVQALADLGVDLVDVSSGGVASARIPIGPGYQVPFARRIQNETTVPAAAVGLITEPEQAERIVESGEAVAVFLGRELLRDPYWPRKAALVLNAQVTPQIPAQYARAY

OYERo2a (WT) [3] = molecular target: T2, OYERo2a (WT); test: steady-state kinetics, BNAH consumption at […] nm; conditions: electron donor; 1 mM N-methylmaleimide, 50 mM phosphate pH 7.1, 25°C
OYERo2a (WT) [4] = molecular target: T3, OYERo2a (WT) (Rhodococcus opacus, UniProt A0A1B1KA86, C25G, form not given); test: steady-state kinetics, BNAH consumption at […] nm; conditions: electron donor; 1 mM N-methylmaleimide, 50 mM phosphate pH 7.1, 25°C
T3 construct: gene O4328_33150; FMN 1:1; dimer by gel filtration; single Cys25
T3 sequence (A0A1B1KA86 entry or part of it C25G, form open): as the sequence (A0A1B1KA86 entry or part of it) above, with C25G counted along it

OYERo2a (WT) [5] = molecular target: T1, OYERo2a (WT); test: steady-state kinetics, BNAH consumption at […] nm; conditions: electron donor; 1 mM N-methylmaleimide, 50 mM phosphate pH 7.1, 25°C
OYERo2a (WT) [6] = molecular target: T4, OYERo2a (WT) (Rhodococcus opacus, UniProt A0A1B1KA86, C25A, form not given); test: steady-state kinetics, BNAH consumption at […] nm; conditions: electron donor; 1 mM N-methylmaleimide, 50 mM phosphate pH 7.1, 25°C
T4 construct: gene O4328_33150; FMN 1:1; dimer by gel filtration; single Cys25
T4 sequence (A0A1B1KA86 entry or part of it C25A, form open): as the sequence (A0A1B1KA86 entry or part of it) above, with C25A counted along it

OYERo2a (WT) [7] = molecular target: T3, OYERo2a (WT); test: steady-state kinetics, NADPH consumption at […] nm; conditions: 50 mM phosphate pH 7.1, 25°C
OYERo2a (WT) [8] = molecular target: T2, OYERo2a (WT); test: residual activity after pre-incubation; conditions: covalent (Cys25); 10 mM, 120 min, 50 mM phosphate pH 7.1, 4°C, dark, oxidized enzyme
OYERo2a (WT) [9] = molecular target: T4, OYERo2a (WT); test: steady-state kinetics, NADPH consumption at […] nm; conditions: 50 mM phosphate pH 7.1, 25°C

T1 sequence (A0A1B1KA86 entry or part of it C25S, form open): as the sequence (A0A1B1KA86 entry or part of it) above, with C25S counted along it

O=C1C=CCCC1 [2-cyclohexen-1-one]
Km (OYERo2a (WT) [1]; 180 μM NADPH, read-out: C25S): 8900 µM
Km (OYERo2a (WT) [2]; 180 μM NADPH, read-out: WT): 3500 µM

NC(=O)C1=CN(Cc2ccccc2)C=CC1 [BNAH]
Km (OYERo2a (WT) [3]): 169 ± 12.4 µM
Km (OYERo2a (WT) [4]): 517 ± 45 µM
Km (OYERo2a (WT) [5]): 239 ± 24.3 µM
Km (OYERo2a (WT) [6]): 230 ± 17.8 µM

CN1C(=O)C=CC1=O [N-methylmaleimide]
Km (OYERo2a (WT) [7]; 180 μM NADPH, read-out: C25G): 94.4 µM
relative activity (OYERo2a (WT) [8]): while the OYERo2a became almost completely inactivated
Km (OYERo2a (WT) [9]; 180 μM NADPH, read-out: C25A): 9.1 µM
Km (OYERo2a (WT) [1]; 180 μM NADPH, read-out: C25S): 30.4 µM
Km (OYERo2a (WT) [2]; 180 μM NADPH, read-out: WT): 9.6 µM

NC(=O)C1=CN([C@@H]2O[C@H](COP(=O)(O)OP(=O)(O)OC[C@H]3O[C@@H](n4cnc5c(N)ncnc54)[C@H](OP(=O)(O)O)[C@@H]3O)[C@@H](O)[C@H]2O)C=CC1 [NADPH]
Km (OYERo2a (WT) [7]; electron donor, 1 mM N-methylmaleimide, read-out: C25G / NADPH): 55.2 ± 2.3 µM
Km (OYERo2a (WT) [9]; electron donor, 1 mM N-methylmaleimide, read-out: C25A / NADPH): 121 ± 8.7 µM
Km (OYERo2a (WT) [1]; electron donor, 1 mM N-methylmaleimide, read-out: C25S / NADPH): 76.9 ± 4.1 µM
Km (OYERo2a (WT) [2]; electron donor, 1 mM N-methylmaleimide, read-out: WT / NADPH): 34.8 ± 2 µM
